Data reported in patent US4307108A, “Method for lowering sorbitol levels using spiro-imides” (Pfizer Inc., priority 1979, dated 1981).
Counter-ions that a name gives are not always drawn.

Columns and labels:
[1] = toxic side effects in diabetic rats on oral administration; type: in vivo; settings: dose level as low as 2.5 mg./kg.
Excerpt: As previously indicated, the spiro-imide compounds of this invention reduce lens sorbitol levels in diabetic subjects. […] The other compounds of this invention also cause similar results. Furthermore, the herein described compounds can be administered by either the oral or parenteral routes of administration without causing any significant untoward pharmacological side reactions in the subjects to whom they are so administered. These compounds are ordinarily administered in dosages ranging from about 0.25 mg. to about 25 mg. per kg. of body weight per day, although variations will necessarily occur depending upon the actual condition of the subject being treated and the particular route of administration chosen.

[2] = test system: sorbitol accumulation in the sciatic nerve of streptozotocinized (i.e., diabetic) rats; assay: reduction/inhibition of sorbitol accumulation in the sciatic nerve of acutely streptozotocinized (diabetic) rats; type: in vivo; settings: for Percent Inhibition (%): oral, 4, 8 and 24 hours after streptozotocin, sorbitol in sciatic nerve measured 27 hours after induction of diabetes, vs. untreated animal
Description: The activity of the compounds of the present invention, as agents for the control of chronic diabetic complications, is determined by their ability to successfully pass one or more of the following standard biological and/or pharmacological tests, viz., (1) measuring their ability to reduce or inhibit sorbitol accumulation in the sciatic nerve of acutely streptozotocinized (i.e., diabetic) rats; (2) measuring their ability to reverse already-elevated sorbitol levels in the sciatic nerve and lens of chronic streptozotocin-induced diabetic rats; (3) measuring their ability to prevent or inhibit galactitol formation in the lens of acutely galactosemic rats, and (4) measuring their ability to delay cataract formation and reduce the severity of lens opacities in chronic galactosemic rats.
The following spiro-imide compounds of Preparation C and Examples 1-5, respectively, were tested for their ability to reduce or inhibit sorbitol accumulation in the sciatic nerve of streptozotocinized (i.e., diabetic) rats essentially by the procedure described in U.S. Pat. No. 3,821,383. In the present study, the amount of sorbitol accumulation in the sciatic nerves was measured 27 hours after induction of diabetes. The compounds were administered orally at the dose levels indicated 4, 8 and 24 hours following the administration of streptozotocin. The results obtained in this manner are presented below in terms of percent inhibition (%) afforded by the test compound as compared to the case where no compound was administered (i.e., the untreated animal where sorbitol levels normally rise from approximately […]. tissue to as high as […]. tissue in the 27-hour test period): […]

water solubility of salt = type: physicochemical; settings: sodium salt, amorphous powder, freeze-dried

For `O=C1CC2(CCc3ccccc32)C(=O)N1` (stereo not drawn) [Product of Ex. 1, 2,3-dihydro-spiro-[1H-indene-1,3'-pyrrolidine]-2',5'-dione], the “substantial signs of toxic side effects” value [1] was “without showing any substantial signs of toxic side effects”, the “Percent Inhibition (%)” value ([2]; 2.5 mg./kg.) was 28% and the “inhibit the formation of sorbitol levels in the sciatic nerve of diabetic rats” value ([2]; oral, dose level as low as 2.5 mg./kg., result in words) was “to a significant degree”.
For `O=C1CC2(CCOc3ccc(Cl)cc32)C(=O)N1` (stereo not drawn) [Product of Ex. 2, 6-chloro-2,3-dihydro-spiro-[4H-1-benzopyran-4,3'-pyrrolidine]-2',5'-dione], the “Percent Inhibition (%)” value ([2]; 5.0 mg./kg.) was 13%.
For `O=C1CC2(Cc3ccccc3C2)C(=O)N1` [Product of Ex. 3, 2,3-dihydro-spiro-[1H-indene-2,3'-pyrrolidine]-2',5'-dione], the “Percent Inhibition (%)” value ([2]; 25 mg./kg.) was 33%.
In the case of `O=C1CC2(CCCc3sccc32)C(=O)N1` (stereo not drawn) [Product of Ex. 4, 6,7-dihydro-spiro-[5H-benzo(b)thiophene-4,3'-pyrrolidine]-2',5'-dione], the “Percent Inhibition (%)” value ([2]; 25 mg./kg.) is reported as 51%.
For `O=C1CCC2(CCCc3ccccc32)C(=O)N1` (stereo not drawn) [Product of Ex. 5, 3,4-dihydro-spiro-[2H-naphthalene-1,3'-piperidine]-2',6'-dione], the “Percent Inhibition (%)” value ([2]; 25 mg./kg.) was 23%.
With `O=C1CC2(CCCc3ccccc32)C(=O)N1` (stereo not drawn) [Product of Prep. C, 3,4-dihydro-spiro-[2H-naphthalene-1,3'-pyrrolidine]-2',5'-dione] the “Percent Inhibition (%)” value ([2]; 5.0 mg./kg.) was 46%.
With `O=C1CC2(CCc3ccccc32)C(=O)N1` (stereo not drawn) [sodium salt of 3,4-dihydro-spiro-[1H-indene-1,3'-pyrrolidino]-2',5'-dione] the solubility in water (water solubility of salt) was “freely-soluble in water”.
